The values below come from article PMC8839658, “Design and Activity of Novel Oxadiazole Based Compounds That Target Poly(ADP-ribose) Polymerase” (Molecules, 2022).

SMILES strings stand for the structures. A value given as a limit tells only on which side of the number the result lay.

The subject of one series is MCF-7 cells. As to the kind of experiment: MCF-7 cell viability assay (Alamar Blue). The conditions noted are these: Homo sapiens, MCF7, 72 h, MCF-7, 72 h, Alamar Blue; read-out: IC50, cell viability of MCF-7 cells. Type of series: cell-based, human. On the procedure: Initially, the newly synthesized oxadiazoles were examined in cell viability studies in human breast cancer (MCF-7) cells using Alamar Blue assays.
MCF-7 and MDA-MB-231 (2000) cells were cultured in MEM or Leibovitz’s L-15 medium enriched with 2% FBS and maintained in a humidified atmosphere of 5% CO2 at 37 °C [44]. DMSO dissolved compounds were kept as a stock solution, and diluted with a cell culture medium to the desired concentration. Cancer cells (4 × 10^3) were grown overnight in 96-well plates, cultured, and treated with oxadiazoles or Olaparib at 0, 0.01, 0.1, 10, 100, and 1000 µM concentrations for 72 h. The inhibitory effect of the compounds was assessed using Alamar Blue reagent.
MCF-7 and MDA-MB-231 were treated with 5u, 5s and Olaparib (0, 0.01, 0.1, 1, 10, 100 µM) for 72 h, respectively. The viability of MCF-7 (A) and MDA-MB-231 cells (B) were analyzed using a microplate reader to measure the fluorescence of Alamar Blue reagent (excitation wavelength is between 530–560 nm and emission wavelength is 590 nm). The results are means of triplicate determinations.
`Cc1cc(-c2cccc(-c3nnc(-c4ccc5c(c4)OCCO5)o3)c2)cnc1Cl` [C00002]: the 50% inhibitory concentration (IC50) amounted to 160 µM.

With `COc1ccc(Cc2nnc(-c3cccc(-c4cncnc4)c3)o2)cc1` [C00003], the half-maximal inhibitory concentration (IC50) was determined as 31.5 µM.

For the compound `FC(F)(F)c1ccc(-c2cccc(-c3nnc(-c4ccc5c(c4)OCCO5)o3)c2)cc1` [C00004], the IC50 was found to be 205 µM.

Take `O=C(NC1CCCC1)c1cccc(-c2cccc(-c3nnc(-c4ccc5c(c4)OCCO5)o3)c2)c1` [C00006]: the IC50 came to 161 µM.

On to `c1cc(-c2cncnc2)cc(-c2nnc(-c3ccc4c(c3)OCCO4)o2)c1` [C00007], for which the 50% inhibitory concentration (IC50) was 43.5 µM.

Take `COc1cccc(-c2cccc(-c3nnc(-c4ccc5c(c4)OCCO5)o3)c2)c1` [C00008]: the IC50 was 345 µM.

As for `COc1ccc(Cc2nnc(-c3cccc(-c4cncc(C)c4C)c3)o2)cc1OC` [C00009], the half-maximal inhibitory concentration (IC50) is 33.2 µM.

As for `c1cc(-c2nnc(-c3ccc4c(c3)OCCO4)o2)cc(-c2cccc3ccccc23)c1` [C00010], the IC50 came out at 74.8 µM.

Turning to `Cc1cncc(-c2cccc(-c3nnc(-c4ccc5c(c4)OCCO5)o3)c2)c1C` [C00011], the IC50 stood at 76.4 µM.

For `c1cc(-c2ccncc2)cc(-c2nnc(-c3ccc4c(c3)OCCO4)o2)c1` [C00012], the IC50 is over 100 µM.

With `COc1ccc(Cc2nnc(-c3cccc(-c4cccnc4)c3)o2)cc1` [C00013], the IC50 worked out at 30.9 µM.

For `c1cncc(-c2cccc(-c3nnc(-c4ccc5c(c4)OCCO5)o3)c2)c1` [C00016], the 50% inhibitory concentration (IC50) worked out at 182 µM.

For the compound `Cc1c(-c2cccc(-c3nnc(-c4ccc5c(c4)OCCO5)o3)c2)ccnc1F` [C00017], the half-maximal inhibitory concentration (IC50) was determined as 265 µM.

As for `COc1ccc(Cc2nnc(-c3cccc(-c4cnc(F)c(C)c4)c3)o2)cc1` [C00018], the IC50 was determined as 41.2 µM.

With `O=Cc1cccc(-c2cccc(-c3nnc(-c4ccc5c(c4)OCCO5)o3)c2)c1` [C00021], the IC50 was 85.3 µM.

`Cc1cc(-c2cccc(-c3nnc(-c4ccc5c(c4)OCCO5)o3)c2)cnc1F` [C00022]: the IC50 was 84 µM.

On to `COc1ccc(Cc2nnc(-c3cccc(-c4ccc(C(C)=O)s4)c3)o2)cc1OC` [C00025], for which the IC50 was over 100 µM.

As to `COc1cccc2c1C(=O)c1c(O)c3c(c(O)c1C2=O)C[C@@](O)(C(=O)CO)C[C@@H]3O[C@H]1C[C@H](N)[C@H](O)[C@H](C)O1` [Doxorubicin, reference compound], the IC50 was 0.24 µM.

For the compound `COc1ccc(Cc2nnc(-c3cccc(-c4cncnc4)c3)o2)cc1OC` [compound 5h, 2-(3,4-Dimethoxybenzyl)-5-(3-(pyrimidin-5-yl)phenyl)-1,3,4-oxadiazole], the IC50 was found to be 21.8 µM.

Turning to `COc1ccc(Cc2nnc(-c3cccc(-c4cccnc4)c3)o2)cc1OC` [compound 5m, 2-(3,4-Dimethoxybenzyl)-5-(3-(pyridin-3-yl)phenyl)-1,3,4-oxadiazole], the IC50 is 27.1 µM.

Regarding `COc1ccc(Cc2nnc(-c3cccc(-c4cnc(F)c(C)c4)c3)o2)cc1OC` [compound 5p, 2-(3,4-Dimethoxybenzyl)-5-(3-(6-fluoro-5-methylpyridin-3-yl)phenyl)-1,3,4-oxadiazole], the IC50 was determined as 18.4 µM.

In the case of `COc1ccc(Cc2nnc(-c3cccc(-c4ccnc(F)c4C)c3)o2)cc1` [compound 5r, 2-(3-(2-Fluoro-3-methylpyridin-4-yl)phenyl)-5-(4-methoxybenzyl)-1,3,4-oxadiazole], the IC50 came to 25 µM.

For the compound `COc1ccc(Cc2nnc(-c3cccc(-c4ccc(C(C)=O)s4)c3)o2)cc1` [compound 5w, 1-(5-(3-(5-(4-Methoxybenzyl)-1,3,4-oxadiazol-2-yl)phenyl)thiophen-2-yl)ethanone], the half-maximal inhibitory concentration (IC50) was 23.1 µM.

The same series, now with this note: MCF-7, 72 h, Alamar Blue; read-out: IC50, cell viability of MCF-7 cells.
For `COc1ccc(Cc2nnc(-c3cccc(-c4cncnc4)c3)o2)cc1OC` [C00005], the half-maximal inhibitory concentration (IC50) turned out to be 21.9 µM.

Regarding `COc1ccc(Cc2nnc(-c3cccc(-c4cccnc4)c3)o2)cc1OC` [C00014], the IC50 was determined as 27.1 µM.

With `COc1ccc(Cc2nnc(-c3cccc(-c4ccnc(F)c4C)c3)o2)cc1OC` [C00015], the IC50 amounted to 15.3 µM.

Consider `COc1ccc(Cc2nnc(-c3cccc(-c4cccc(C=O)c4)c3)o2)cc1` [C00019], for which the IC50 stood at 1.45 µM.

Take `COc1ccc(Cc2nnc(-c3cccc(-c4cnc(F)c(C)c4)c3)o2)cc1OC` [C00020]: the IC50 is 18.4 µM.

With `COc1ccc(Cc2nnc(-c3cccc(-c4ccc(C(C)=O)s4)c3)o2)cc1` [C00023], the IC50 turned out to be 23.1 µM.

As for `COc1ccc(Cc2nnc(-c3cccc(-c4ccnc(F)c4C)c3)o2)cc1` [C00024], the IC50 was 25 µM.

The target of a further series is T1, recombinant human PARP enzyme (PARP1) (Homo sapiens, UniProt P09874).
T1 construct: purchased R&D Systems Ltd., Abingdon, UK 4677-096-K
T1 sequence (P09874 whole entry): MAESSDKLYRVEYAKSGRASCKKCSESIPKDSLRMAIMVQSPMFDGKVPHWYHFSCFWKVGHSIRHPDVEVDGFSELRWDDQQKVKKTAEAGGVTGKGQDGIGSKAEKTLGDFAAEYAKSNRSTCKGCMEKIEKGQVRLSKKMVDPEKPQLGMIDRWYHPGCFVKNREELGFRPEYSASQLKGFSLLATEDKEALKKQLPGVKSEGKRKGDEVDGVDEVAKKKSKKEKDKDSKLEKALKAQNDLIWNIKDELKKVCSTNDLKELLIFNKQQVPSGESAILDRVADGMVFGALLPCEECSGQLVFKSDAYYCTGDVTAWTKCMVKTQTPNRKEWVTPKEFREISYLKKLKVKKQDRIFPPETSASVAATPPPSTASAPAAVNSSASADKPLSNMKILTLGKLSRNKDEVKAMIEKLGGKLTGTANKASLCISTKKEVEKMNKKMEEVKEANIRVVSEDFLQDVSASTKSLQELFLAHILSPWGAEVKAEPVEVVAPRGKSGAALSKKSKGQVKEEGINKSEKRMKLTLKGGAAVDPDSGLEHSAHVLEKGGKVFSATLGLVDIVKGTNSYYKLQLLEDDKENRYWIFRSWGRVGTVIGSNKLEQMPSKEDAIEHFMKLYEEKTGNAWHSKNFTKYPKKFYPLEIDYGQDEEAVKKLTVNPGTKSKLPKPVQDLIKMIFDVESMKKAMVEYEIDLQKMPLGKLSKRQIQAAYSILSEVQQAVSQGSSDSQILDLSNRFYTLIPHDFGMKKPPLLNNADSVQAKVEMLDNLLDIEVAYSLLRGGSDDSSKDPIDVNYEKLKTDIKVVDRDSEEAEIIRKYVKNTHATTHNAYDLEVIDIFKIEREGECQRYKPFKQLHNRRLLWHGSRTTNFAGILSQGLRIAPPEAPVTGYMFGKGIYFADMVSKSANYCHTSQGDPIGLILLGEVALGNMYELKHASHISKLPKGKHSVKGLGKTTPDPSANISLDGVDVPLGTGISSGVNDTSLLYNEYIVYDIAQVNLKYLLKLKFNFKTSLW
Put plainly: PARP activity, PARP/Apoptosis Universal Colorimetric Assay Kit. The class given is biochemical. The conditions noted are these: 0.01 µM, n = 3. The method, then: PARP activity was measured using the PARP/Apoptosis Universal Colorimetric Assay Kit (4677-096-K, R&D Systems Ltd., Abingdon, UK). The enzyme inhibition assay uses the histone proteins immobilized 96-well plate, which measures the incorporation of ADP-ribose (biotin-tagged), followed by detection using streptavidin-conjugated horse-radish peroxidase, and finally the color development after the addition of substrate. Oxadiazoles were incubated with the recombinant human PARP enzyme prior to detection.
For the compound `NC(=O)c1cccc(N)c1` [3-Aminobenzamide, reference compound], the inhibition at 0.01 µM was determined as 0.5%.

The series is the same for the next values; noted with them: 0.1 µM, n = 3.
For `NC(=O)c1cccc(N)c1` [3-Aminobenzamide, reference compound], the inhibition at 0.1 µM came out at 6.17%.

Still in this series, the particulars now being: 1 µM, n = 3.
Take `NC(=O)c1cccc(N)c1` [3-Aminobenzamide, reference compound]: the inhibition at 1 µM came to 23.3%.

Staying with this series, now noted: 10 µM, n = 3.
Take `NC(=O)c1cccc(N)c1` [3-Aminobenzamide, reference compound]: the inhibition at 10 µM stood at 56.6%.

Staying with this series, now noted: 100 µM, n = 3.
With `NC(=O)c1cccc(N)c1` [3-Aminobenzamide, reference compound], the inhibition at 100 µM worked out at 85.7%.

System in a further series: not given
Test: not given
Settings: not given
`FC(F)(F)c1ccc(-c2cccc(-c3nnc(-c4ccc5c(c4)OCCO5)o3)c2)cc1` [5b, 2-(2,3-Dihydrobenzo[b][1,4]dioxin-6-yl)-5-(4′-(trifluoromethyl)-[1,1′-biphenyl]-3-yl)-1,3,4-oxadiazole] came in with a melting point of 160 to 162 °C.

Consider `O=C(NC1CCCC1)c1cccc(-c2cccc(-c3nnc(-c4ccc5c(c4)OCCO5)o3)c2)c1` [5c, N-Cyclopentyl-3′-(5-(2,3-dihydrobenzo[b][1,4]dioxin-6-yl)-1,3,4-oxadiazol-2-yl)-[1,1′-biphenyl]-3-carboxamide], for which the melting point lay within 186 to 188 °C.

In the case of `c1cc(-c2nnc(-c3ccc4c(c3)OCCO4)o2)cc(-c2cccc3ccccc23)c1` [5e, 2-(2,3-Dihydrobenzo[b][1,4]dioxin-6-yl)-5-(3-(naphthalen-1-yl)phenyl)-1,3,4-oxadiazole], the melting point fell in the range of 156 to 158 °C.

`c1cc(-c2ccncc2)cc(-c2nnc(-c3ccc4c(c3)OCCO4)o2)c1` [5f, 2-(2,3-Dihydrobenzo[b][1,4]dioxin-6-yl)-5-(3-(pyridin-4-yl)phenyl)-1,3,4-oxadiazole] gave a melting point of 194 to 196 °C.

On to `c1cc(-c2cncnc2)cc(-c2nnc(-c3ccc4c(c3)OCCO4)o2)c1` [5i, 2-(2,3-Dihydrobenzo[b][1,4]dioxin-6-yl)-5-(3-(pyrimidin-5-yl)phenyl)-1,3,4-oxadiazole], for which the melting point lay within 190 to 192 °C.

`Cc1cncc(-c2cccc(-c3nnc(-c4ccc5c(c4)OCCO5)o3)c2)c1C` [5k, 2-(2,3-Dihydrobenzo[b][1,4]dioxin-6-yl)-5-(3-(4,5-dimethylpyridin-3-yl)phenyl)-1,3,4-oxadiazole] returned a melting point of 198 to 200 °C.

`c1cncc(-c2cccc(-c3nnc(-c4ccc5c(c4)OCCO5)o3)c2)c1` [5n, 2-(2,3-Dihydrobenzo[b][1,4]dioxin-6-yl)-5-(3-(pyridin-3-yl)phenyl)-1,3,4-oxadiazole] registered a melting point of 138 to 140 °C.

The compound `Cc1cc(-c2cccc(-c3nnc(-c4ccc5c(c4)OCCO5)o3)c2)cnc1F` [5q, 2-(2,3-Dihydrobenzo[b][1,4]dioxin-6-yl)-5-(3-(6-fluoro-5-methylpyridin-3-yl)phenyl)-1,3,4-oxadiazole] returned a melting point of 144 to 146 °C.

For `Cc1c(-c2cccc(-c3nnc(-c4ccc5c(c4)OCCO5)o3)c2)ccnc1F` [5t, 2-(2,3-Dihydrobenzo[b][1,4]dioxin-6-yl)-5-(3-(2-fluoro-3-methylpyridin-4-yl)phenyl)-1,3,4-oxadiazole], the melting point was 128 to 130 °C.

Turning to `COc1ccc(Cc2nnc(-c3cccc(-c4cncnc4)c3)o2)cc1` [compound 5g, 2-(4-Methoxybenzyl)-5-(3-(pyrimidin-5-yl)phenyl)-1,3,4-oxadiazole], the melting point lay in the range of 90 to 92 °C.

On to `COc1ccc(Cc2nnc(-c3cccc(-c4cncnc4)c3)o2)cc1OC` [compound 5h, 2-(3,4-Dimethoxybenzyl)-5-(3-(pyrimidin-5-yl)phenyl)-1,3,4-oxadiazole], for which the melting point is 98 to 100 °C.

The compound `COc1ccc(Cc2nnc(-c3cccc(-c4cncc(C)c4C)c3)o2)cc1OC` [compound 5j, 2-(3,4-Dimethoxybenzyl)-5-(3-(4,5-dimethylpyridin-3-yl)phenyl)-1,3,4-oxadiazole] showed a melting point of 90 to 92 °C.

`COc1ccc(Cc2nnc(-c3cccc(-c4cccnc4)c3)o2)cc1OC` [compound 5m, 2-(3,4-Dimethoxybenzyl)-5-(3-(pyridin-3-yl)phenyl)-1,3,4-oxadiazole]: the melting point was in the range of 78 to 80 °C.

`COc1ccc(Cc2nnc(-c3cccc(-c4cnc(F)c(C)c4)c3)o2)cc1` [compound 5o, 2-(3-(6-Fluoro-5-methylpyridin-3-yl)phenyl)-5-(4-methoxybenzyl)-1,3,4-oxadiazole] showed a melting point of 86 to 88 °C.

As for `COc1ccc(Cc2nnc(-c3cccc(-c4cnc(F)c(C)c4)c3)o2)cc1OC` [compound 5p, 2-(3,4-Dimethoxybenzyl)-5-(3-(6-fluoro-5-methylpyridin-3-yl)phenyl)-1,3,4-oxadiazole], the melting point is 91 to 93 °C.

Take `COc1ccc(Cc2nnc(-c3cccc(-c4ccnc(F)c4C)c3)o2)cc1` [compound 5r, 2-(3-(2-Fluoro-3-methylpyridin-4-yl)phenyl)-5-(4-methoxybenzyl)-1,3,4-oxadiazole]: the melting point was in the range of 94 to 96 °C.
